Target: HPK1 (Homo sapiens (Human), UniProt Q92918)
Assay: HPK1 Kinase Binding Assay
Protocol: A stock solution of 1 mM test compound was prepared in DMSO. The compound plate was prepared by 3-fold and 11-point serial dilutions. 0.1 μL of the compound in DMSO was transferred from the compound plate to the white 384 well polystyrene plates. The assay buffer contained 50 mM HEPES, pH 7.5, 0.01% Tween-20, 5 mM MgCl2, 0.01% BSA, and 5 mM DTT. 5 μl of 4 nM active HPK1 (SignalChem M23-11G) prepared in the buffer was added to the plate. The enzyme concentration given was based on the given stock concentration reported by the vender. 5 μl of 18 nM tracer 222 (ThermoFisher PV6121) and 4 nM LanthaScreen Eu-Anti GST antibody (ThermoFisher PV5595) were added. After one hour incubation at 25° C., the plates were read on a PHERAstar FS plate reader (BMG Labtech). Ki values were determined.

Sequence of HPK1 (Q92918 1-346): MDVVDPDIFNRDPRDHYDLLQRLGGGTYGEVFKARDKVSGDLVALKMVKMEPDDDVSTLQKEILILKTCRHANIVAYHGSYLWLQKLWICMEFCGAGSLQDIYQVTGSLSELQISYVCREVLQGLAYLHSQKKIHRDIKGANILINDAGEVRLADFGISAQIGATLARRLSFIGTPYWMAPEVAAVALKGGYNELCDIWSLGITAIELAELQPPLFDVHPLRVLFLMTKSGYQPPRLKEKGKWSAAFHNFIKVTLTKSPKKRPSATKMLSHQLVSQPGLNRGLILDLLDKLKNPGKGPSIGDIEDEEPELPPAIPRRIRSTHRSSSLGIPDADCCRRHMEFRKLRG

Row | Structure (SMILES) | Ki [nM]
1 | COc1cccc(F)c1-c1cc2c(N3CCc4ccc(C#N)cc4C3)n[nH]c2cn1 [Example 38, 2-(5-(2-Fluoro-6-methoxyphenyl)-1H-pyrazolo[3,4-c]pyridin-3-yl)-1,2,3,4-tetrahydroisoquinoline-7-carbonitrile] | ≤ 100
2 | COc1cccc(F)c1-c1cc2c(-c3cc(C)no3)n[nH]c2cn1 [Example 35, 5-(5-(2-Fluoro-6-methoxyphenyl)-1H-pyrazolo[3,4-c]pyridin-3-yl)-3-methylisoxazole] | ≤ 100
3 | CNC1CCCc2c1cc(F)c(-c1cc3c(-c4cnn(C)c4)n[nH]c3cn1)c2F (stereo not shown) [Example 202, 5,7-Difluoro-N-methyl-6-(3-(1-methyl-1H-pyrazol-4-yl)-1H-pyrazolo[3,4-c]pyridin-5-yl)-1,2,3,4-tetrahydronaphthalen-1-amine] | ≤ 100
4 | CCNCc1cc(C)c(-c2cc3c(-c4cnn(C)c4)n[nH]c3cn2)c(F)c1 [Example 176, N-(3-Fluoro-5-methyl-4-(3-(1-methyl-1H-pyrazol-4-yl)-1H-pyrazolo[3,4-c]pyridin-5-yl)benzyl)ethanamine] | ≤ 100
5 | Cc1cc(NC(=O)CN(C)C)cc(Cl)c1-c1cc2c(-c3cnn(C)c3)n[nH]c2cn1 [Example 78, N-(3-Chloro-5-methyl-4-(3-(1-methyl-1H-pyrazol-4-yl)-1H-pyrazolo[3,4-c]pyridin-5-yl)phenyl)-2-(dimethylamino)acetamide] | ≤ 100
6 | Cc1cc(NC(=O)CN2C3CCC2CC3)cc(F)c1-c1cc2c(-c3cnn(C)c3)n[nH]c2cn1 [Example 82, 2-(7-Azabicyclo[2.2.1]heptan-7-yl)-N-(3-fluoro-5-methyl-4-(3-(1-methyl-1H-pyrazol-4-yl)-1H-pyrazolo[3,4-c]pyridin-5-yl)phenyl)acetamide] | ≤ 100
7 | COc1cc(NC(=O)OC2CCN(C)CC2)cc(F)c1-c1cc2c(-c3cnn(C)c3)n[nH]c2cn1 [Example 76, 1-Methylpiperidin-4-yl 3-fluoro-5-methoxy-4-(3-(1-methyl-1H-pyrazol-4-yl)-1H-pyrazolo[3,4-c]pyridin-5-yl)phenylcarbamate] | ≤ 100

Other lines, results leading:

Row | Ki [nM] | Structure (SMILES)
8 | ≤ 100 | Cn1cc(-c2n[nH]c3cnc(-c4c(F)cc(CNc5ccccn5)cc4F)cc23)cn1 [Example 124, N-(3,5-Difluoro-4-(3-(1-methyl-1H-pyrazol-4-yl)-1H-pyrazolo[3,4-c]pyridin-5-yl)benzyl)pyridin-2-amine]
9 | ≤ 100 | CN1CCN(c2ccc(C(=O)Nc3n[nH]c4cnc(-c5c(F)cccc5C(F)(F)F)cc34)cc2)CC1 [Example 153, N-(5-(2-Fluoro-6-(trifluoromethyl)phenyl)-1H-pyrazolo[3,4-c]pyridin-3-yl)-4-(4-methylpiperazin-1-yl)benzamide]
10 | ≤ 100 | COc1cccc(F)c1-c1cc2c(-n3cnc(C(=O)NC(C)C)c3)n[nH]c2cn1 [Example 104, 1-(5-(2-Fluoro-6-methoxyphenyl)-1H-pyrazolo[3,4-c]pyridin-3-yl)-N-isopropyl-1H-imidazole-4-carboxamide]
11 | ≤ 100 | CNCc1cc(F)c(-c2cc3c(-c4ccc(N5CCN(C)CC5)cc4)n[nH]c3cn2)c(C(F)(F)F)c1 [Example 132, 1-(3-Fluoro-4-(3-(4-(4-methylpiperazin-1-yl)phenyl)-1H-pyrazolo[3,4-c]pyridin-5-yl)-5-(trifluoromethyl)phenyl)-N-methylmethanamine]
12 | ≤ 100 | CNCc1cc(C)c(-c2cc3c(-c4cnn(C5CCOCC5)c4)n[nH]c3cn2)c(F)c1 [Example 136, 1-(3-Fluoro-5-methyl-4-(3-(1-(tetrahydro-2H-pyran-4-yl)-1H-pyrazol-4-yl)-1H-pyrazolo[3,4-c]pyridin-5-yl)phenyl)-N-methylmethanamine]
13 | ≤ 100 | CN1CCN(c2ccc(-c3n[nH]c4cnc(-c5c(F)cccc5F)cc34)cc2)CC1 [Example 44, 5-(2,6-Difluorophenyl)-3-(4-(4-methylpiperazin-1-yl)phenyl)-1H-pyrazolo[3,4-c]pyridine]

Source: US10435405B2, “Pyrazolopyridine compounds and uses thereof” (Incyte Corporation, priority 2016, dated 2019)
